{"source": "patent US20260138961A1", "about": "“MODULATORS OF MITOCHONDRIAL DNA REPLICATION” (Pretzel Therapeutics, Inc., priority 2022, published 2026)"}
{"molecular_target": "T1, POLγA:G848S (Homo sapiens, UniProt P54098, G848S)", "T1 sequence (P54098 1-1239 G848S)": "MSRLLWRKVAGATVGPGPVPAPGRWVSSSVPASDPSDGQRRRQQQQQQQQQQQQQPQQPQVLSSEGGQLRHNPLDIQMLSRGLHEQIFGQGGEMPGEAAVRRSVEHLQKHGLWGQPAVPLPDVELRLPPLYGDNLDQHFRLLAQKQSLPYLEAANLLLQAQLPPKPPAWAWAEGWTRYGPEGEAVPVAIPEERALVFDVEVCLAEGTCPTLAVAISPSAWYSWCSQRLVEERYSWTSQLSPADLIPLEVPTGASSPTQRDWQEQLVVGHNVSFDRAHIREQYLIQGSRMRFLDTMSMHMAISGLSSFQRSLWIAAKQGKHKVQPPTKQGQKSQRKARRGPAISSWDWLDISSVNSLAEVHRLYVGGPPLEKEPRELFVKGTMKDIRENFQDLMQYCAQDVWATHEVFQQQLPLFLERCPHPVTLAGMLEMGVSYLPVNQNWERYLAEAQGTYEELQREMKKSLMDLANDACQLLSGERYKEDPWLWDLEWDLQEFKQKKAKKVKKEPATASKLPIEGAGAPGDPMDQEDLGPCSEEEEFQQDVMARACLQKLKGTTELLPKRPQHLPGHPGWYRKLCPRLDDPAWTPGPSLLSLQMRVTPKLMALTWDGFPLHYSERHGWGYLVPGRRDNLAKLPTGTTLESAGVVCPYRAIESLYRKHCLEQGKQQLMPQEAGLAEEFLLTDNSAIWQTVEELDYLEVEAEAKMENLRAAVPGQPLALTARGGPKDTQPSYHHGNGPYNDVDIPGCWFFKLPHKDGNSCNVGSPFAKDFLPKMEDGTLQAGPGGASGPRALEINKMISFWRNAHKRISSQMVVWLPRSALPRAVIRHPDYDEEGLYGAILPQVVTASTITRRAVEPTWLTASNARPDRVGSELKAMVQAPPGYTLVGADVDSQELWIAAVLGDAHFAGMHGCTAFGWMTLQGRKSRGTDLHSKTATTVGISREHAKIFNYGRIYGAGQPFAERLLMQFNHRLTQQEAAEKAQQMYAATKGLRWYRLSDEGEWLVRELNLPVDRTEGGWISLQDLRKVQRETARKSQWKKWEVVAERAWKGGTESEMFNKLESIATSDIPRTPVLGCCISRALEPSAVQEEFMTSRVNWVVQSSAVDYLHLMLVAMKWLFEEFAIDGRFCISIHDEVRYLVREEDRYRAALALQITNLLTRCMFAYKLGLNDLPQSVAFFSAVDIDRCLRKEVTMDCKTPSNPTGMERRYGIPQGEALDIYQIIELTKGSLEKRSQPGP", "T1 sequence (Q9UHN1 1-485 partner)": "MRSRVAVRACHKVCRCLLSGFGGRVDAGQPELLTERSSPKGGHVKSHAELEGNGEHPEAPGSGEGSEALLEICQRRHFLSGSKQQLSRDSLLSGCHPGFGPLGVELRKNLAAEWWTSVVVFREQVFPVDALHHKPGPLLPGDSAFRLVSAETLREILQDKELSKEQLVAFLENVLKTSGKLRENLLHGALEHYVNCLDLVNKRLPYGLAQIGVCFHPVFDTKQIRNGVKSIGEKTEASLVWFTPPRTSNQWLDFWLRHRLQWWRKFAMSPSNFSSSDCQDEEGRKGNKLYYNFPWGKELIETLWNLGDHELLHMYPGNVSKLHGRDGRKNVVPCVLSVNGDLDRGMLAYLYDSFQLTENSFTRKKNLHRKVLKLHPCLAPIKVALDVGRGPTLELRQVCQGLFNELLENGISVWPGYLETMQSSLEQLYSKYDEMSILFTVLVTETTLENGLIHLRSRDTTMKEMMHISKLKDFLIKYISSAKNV", "test": "DNA polymerization assay, POLγA:G848S mutant", "assay_type": "biochemical", "details": "stimulation of polymerase activity, primed M13mp18 ssDNA, 37° C. 2 hours; read-out: G848S AC50", "units": {"AC50": "µM"}}
{"molecule": "Cc1cc(S(=O)(=O)Nc2csc(-c3ccccc3)n2)c(F)cc1Cl", "note": "[Example 146, 4-chloro-2-fluoro-5-methyl-N-(2-phenylthiazol-4-yl)benzenesulfonamide]", "AC50": "> 100"}
{"molecule": "O=S(=O)(Nc1csc(-c2ccccc2)n1)c1ccccc1", "note": "[Example 147, N-(2-phenylthiazol-4-yl)benzenesulfonamide]", "AC50": "> 100"}
{"molecule": "Cc1cc(S(=O)(=O)Nc2csc(-c3ccccc3)n2)ccc1Cl", "note": "[Example 148, 4-chloro-3-methyl-N-(2-phenylthiazol-4-yl)benzenesulfonamide]", "AC50": "> 100"}
{"molecule": "Cc1cc(S(=O)(=O)N[C@@H]2CCCN(c3ccccc3)C2)c(C)cc1Cl", "note": "[Example 149, (R)-4-chloro-2,5-dimethyl-N-(1-phenylpiperidin-3-yl)benzenesulfonamide]", "AC50": "> 100"}
{"molecule": "Cc1cc(S(=O)(=O)N[C@@H]2CCCN(C(=O)c3ccccc3)C2)c(C)cc1Cl", "note": "[Example 150, (R)-N-(1-benzoylpiperidin-3-yl)-4-chloro-2,5-dimethylbenzenesulfonamide]", "AC50": "> 100"}
{"molecule": "O=S(=O)(Nc1csc(-c2ccccc2)n1)c1cccc(C(F)(F)F)c1", "note": "[Example 151, N-(2-phenylthiazol-4-yl)-3-(trifluoromethyl)benzenesulfonamide]", "AC50": 2}
{"molecule": "O=S(=O)(Nc1csc(-c2ccccc2)n1)c1ccc2c(c1)CCO2", "note": "[Example 152, N-(2-phenylthiazol-4-yl)-2,3-dihydrobenzofuran-5-sulfonamide]", "AC50": 6}
{"molecule": "Cc1cc(S(=O)(=O)N[C@@H]2CCCN(C(=O)N3CCCC3)C2)c(C)cc1Cl", "note": "[Example 153, (R)-4-chloro-2,5-dimethyl-N-(1-(pyrrolidine-1-carbonyl)piperidin-3-yl)benzenesulfonamide]", "AC50": "> 100"}
{"molecule": "Cc1cc(S(=O)(=O)Nc2ccc3c(c2)CC(=O)N3)c(C)cc1Cl", "note": "[Example 185, 4-chloro-2,5-dimethyl-N-(2-oxoindolin-5-yl)benzenesulfonamide]", "AC50": 15}
{"molecule": "(R)-2,5-dimethyl-N-(3-(3-methylmorpholine-4-carbonyl)phenyl)benzenesulfonamide [Example 1]", "AC50": 18}
